Among the data in patent US20230009608A1, “GRK2 INHIBITORS AND USES THEREOF” (Cygnal Therapeutics, Inc., priority 2020, published 2023) are IC50 values, retold here.

The test concerns the target T1, GRK2 (Homo sapiens, UniProt P25098).
T1 construct: purchased SignalChem A14-10G
T1 sequence (P25098 1-689): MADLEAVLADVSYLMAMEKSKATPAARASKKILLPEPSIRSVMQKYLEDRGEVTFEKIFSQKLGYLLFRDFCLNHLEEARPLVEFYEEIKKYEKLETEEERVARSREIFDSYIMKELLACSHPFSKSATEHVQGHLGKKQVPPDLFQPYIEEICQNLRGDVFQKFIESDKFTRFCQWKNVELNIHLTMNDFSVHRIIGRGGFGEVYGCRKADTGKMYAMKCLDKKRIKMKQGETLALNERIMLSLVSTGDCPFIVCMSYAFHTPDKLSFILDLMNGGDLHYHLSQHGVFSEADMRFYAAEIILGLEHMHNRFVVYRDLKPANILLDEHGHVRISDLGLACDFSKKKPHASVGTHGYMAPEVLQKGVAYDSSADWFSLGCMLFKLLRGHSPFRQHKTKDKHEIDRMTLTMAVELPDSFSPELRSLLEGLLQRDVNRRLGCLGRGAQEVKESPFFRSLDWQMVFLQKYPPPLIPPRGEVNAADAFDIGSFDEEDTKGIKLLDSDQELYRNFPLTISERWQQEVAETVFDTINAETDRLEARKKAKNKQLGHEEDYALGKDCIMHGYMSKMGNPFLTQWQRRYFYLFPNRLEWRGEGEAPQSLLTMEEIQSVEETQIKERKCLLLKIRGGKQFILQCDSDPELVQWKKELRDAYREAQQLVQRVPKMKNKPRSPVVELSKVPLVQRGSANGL
As to the kind of experiment: ADPGlo GRK2 Inhibition Assay (Example 8). It is filed as biochemical. The settings on record: ADPGlo GRK2 enzyme assay; read-out: A: Enzymatic GRK2: IC50 (nM) (Example 8). The protocol: HTS was performed using 1 μM compound.
Compounds were dissolved in 100% DMSO, serially diluted tree-fold from 100 μM concentration to 46 nM and transferred (50 nL) into assay ready plate.
Materials: GRK2 was purchased from SignalChem (Cat #A14-10G, Lot #X^645-3). Substrate GRKtide was from SignalChem (Cat #G46-58, Lot #R339-6). ADP-Glo Kinase Assay from Promega (Cat #V9102). Assay buffer consisted of 25 mMv HEPES (pH7.5), 10 mMv MgCl2, 0.01% Tween-20, 1 mM DDT. 384-well white plates were from Greiner […] (Item #784075).
HTS protocol: Take 384 well plate with 50 nL of compound in columns 3-22/DMSO solution 1-2,23-24. Add 2.5 μL assay buffer to columns 23 and 24 using Thermo Scientific Multidrop Combi Dispenser. Add 2.5 μL of 2× enzyme solution (15 nM in 1× assay buffer) using Thermo Scientific Multidrop Combi Reagent Dispenser to all columns except of 23 and 24. Incubate for 15 minutes. Fill plate with 2.5 μL of 2× substrate mix (20 μM ATP and 0.6 mg/nt GRKtide in Ix assay buffer) using Thermo Scientific Multidrop Combi Reagent Dispenser. Spin 15 seconds at 1000 rpm and incubate for 180 min at room temperature. Add 5 μL ADP-Glo reagent to all the wells. Spin 15 seconds at 1000 rpm and incubate for 40 min at room temperature. Add 10 μL Detection solution to all the wells. Incubate for 30 min at room temperature. Read plate in Luminescent modeon BMG PheraStar FSX (gain=3600).
Data Analysis: Data were analyzed in GraphPad Prism 8.0.2. Each HTS plate contains compounds in columns 3-22, controls (enzyme, no compound) in columns 1 and 2, and blanks (no enzyme) in columns 23 and 24. HTS percent inhibition was calculated for each compound from the signal in luminescence units and the mean of the plate controls and the mean of the plate blanks using the following equation: % Inhibition=100*(1−((signal-blank mean)/(control mean-blank mean))). At the final stage of data processing, we obtain dose-response curves, tables and SDF-files with the results of screening for each substance.
With `CN1CC[C@H](NC(=O)c2cccc(NCc3nnc(-c4ccncn4)n3C)c2)c2ccccc21`, the half-inhibitory concentration (IC50) was 85 nM.

`COC1COc2ccccc2C1NC(=O)c1cccc(NCc2nnc(-c3ccncn3)n2C)c1` (stereo not drawn): the IC50 worked out at 59.1 nM.

As to `CNS(=O)(=O)c1ccccc1CNC(=O)c1cccc(NCc2nnc(-c3ccncn3)n2C)c1`, the IC50 turned out to be 62.5 nM.

Consider `CNS(=O)(=O)Cc1ccccc1CNC(=O)c1cccc(NCc2nnc(-c3ccncn3)n2C)c1`, for which the half-inhibitory concentration (IC50) came out at 68.9 nM.

As for `CC(NC(=O)c1cccc(NCc2nnc(-c3ccncn3)n2C)c1)c1ccccc1NS(C)(=O)=O` (stereo not drawn), the half-inhibitory concentration (IC50) was 68 nM.

With `CN1CCN(c2ccccc2CNC(=O)c2cccc(NCc3nnc(-c4ccncn4)n3C)c2)CC1`, the IC50 stood at 184 nM.

Turning to `Cn1c(CNc2cccc(C(=O)NCc3cc(F)ccc3N3CCOCC3)c2)nnc1-c1ccncn1`, the IC50 was 104 nM.

On to `Cc1ccc(CNC(=O)c2cccc(NCc3nnc(-c4ccncn4)n3C)c2)c(N2CCOCC2)c1`, for which the IC50 came out at 412 nM.

Turning to `Cn1c(CNc2cccc(C(=O)NCc3ccccc3S(=O)(=O)N3CCOCC3)c2)nnc1-c1ccncn1`, the IC50 is 52.8 nM.

Regarding `Cn1c(CNc2cccc(C(=O)NCc3ccccc3S(=O)(=O)N3CCCCC3)c2)nnc1-c1ccncn1`, the concentration for half-maximal inhibition (IC50) is 50.5 nM.

Turning to `Cn1c(CNc2cccc(C(=O)NCc3ccccc3CS(=O)(=O)N3CCCC3)c2)nnc1-c1ccncn1`, the 50% inhibitory concentration (IC50) was 107 nM.

As for `Cn1c(CNc2cccc(C(=O)N[C@]3(c4ccccc4F)C[C@H](O)C3)c2)nnc1-c1ccncn1`, the 50% inhibitory concentration (IC50) turned out to be 423 nM.

For `Cc1nnc(O)c(C(C)NC(=O)c2cccc(NCc3nnc(-c4ccncn4)n3C)c2)c1C` (stereo not drawn), the half-maximal inhibitory concentration (IC50) is 132 nM.

Regarding `Cc1ncc2c(n1)CCCC2NC(=O)c1cccc(NCc2nnc(-c3ccncn3)n2C)c1` (stereo not drawn), the 50% inhibitory concentration (IC50) was 108 nM.

Regarding `Cn1c(CNc2cccc(C(=O)NCc3cc4c(nc3O)CCCC4)c2)nnc1-c1ccncn1`, the IC50 came to 192 nM.

As for `Cn1c(CNc2cccc(C(=O)NCc3ncccc3-n3cccn3)c2)nnc1-c1ccncn1`, the IC50 was found to be 318 nM.

`CCc1n[nH]c(=O)c(CNC(=O)c2cccc(NCc3nnc(-c4ccncn4)n3C)c2)c1CC`: the IC50 is 504 nM.

On to `CN1CCN(c2ncccc2CNC(=O)c2cccc(NCc3nnc(-c4ccncn4)n3C)c2)CC1`, for which the IC50 came out at 289 nM.

`Cn1c(CNc2cccc(C(=O)NCc3ccccc3CN3CCC(O)C3)c2)nnc1-c1ccncn1` (stereo not drawn): the IC50 is 136 nM.

As to `Cn1c(CNc2cccc(C(=O)NCc3ccncc3OCC3CCOC3)c2)nnc1-c1ccncn1` (stereo not drawn), the IC50 was determined as 871 nM.

Regarding `CC(C)NS(=O)(=O)Cc1ccccc1CNC(=O)c1cccc(NCc2nnc(-c3ccncn3)n2C)c1`, the IC50 was determined as 69.8 nM.

Turning to `Cn1c(CNc2cccc(C(=O)NCc3c4c(n[nH]c3=O)CCCC4)c2)nnc1-c1ccncn1`, the IC50 stood at 531 nM.

Take `Cn1c(CNc2cccc(C(=O)NCc3nccnc3O)c2)nnc1-c1ccncn1`: the IC50 was 728 nM.

With `Cc1ncc(CNC(=O)c2cccc(NCc3nnc(-c4ccncn4)n3C)c2)c(O)n1`, the IC50 came to 382 nM.

Consider `Cn1c(CNc2cccc(C(=O)NCc3cc(Br)cnc3O)c2)nnc1-c1ccncn1`, for which the 50% inhibitory concentration (IC50) is 103 nM.

As to `Cn1c(CNc2cccc(C(=O)NC3(c4ncccc4F)CC3)c2)nnc1-c1ccncn1`, the half-inhibitory concentration (IC50) amounted to 104 nM.

On to `CN(C)c1cccnc1CNC(=O)c1cccc(NCc2nnc(-c3ccncn3)n2C)c1`, for which the 50% inhibitory concentration (IC50) came to 120 nM.

In the case of `CC(O)C(NC(=O)c1cccc(NCc2nnc(-c3ccncn3)n2C)c1)c1ccccc1F` (stereo not drawn), the IC50 is 209 nM.

With `Cn1c(CNc2cccc(C(=O)NCc3cccnc3-n3cccn3)c2)nnc1-c1ccncn1`, the 50% inhibitory concentration (IC50) was determined as 146 nM.

`CCN1CCN(Cc2ccccc2CNC(=O)c2cccc(NCc3nnc(-c4ccncn4)n3C)c2)CC1`: the concentration for half-maximal inhibition (IC50) is 267 nM.

Turning to `Cn1c(CNc2cccc(C(=O)NC(CO)c3c(F)cccc3F)c2)nnc1-c1ccncn1` (stereo not drawn), the half-maximal inhibitory concentration (IC50) came out at 146 nM.

On to `Cn1c(CNc2cccc(C(=O)NCc3ccccc3-n3cccn3)c2)nnc1-c1ccncn1`, for which the IC50 amounted to 184 nM.

Consider `Cn1c(CNc2cccc(C(=O)NCc3cccnc3N3CCOCC3)c2)nnc1-c1ccncn1`, for which the IC50 came to 176 nM.
